Series [1] in a line: Drug uptake in human PC-3 cells at 150 uM incubated under irradiation at 405 nm in presence of cytochalasin B by confocal laser scan fluorescence microscopy. Particulars: pc-3, 150 µM; call rule not given here. The class given is ADME, cell-based.
A short description of series [2]: Drug uptake in human PC-3 cells at 150 uM incubated under irradiation at 405 nm in presence of up top 25 mM glucose by confocal laser scan fluorescence microscopy. The series is classed as ADME, cell-based. Particulars: pc-3, 150 µM.
The subject of series [3] is PC-3. Put plainly: Dark toxicity in human PC-3 cells assessed as reduction in cell viability at 300 uM incubated under dark for 2 hrs by MTT assay. The series is classed as cell-based. The settings on record: pc-3, 2 h.
The nature of series [4]: Drug uptake in human PC-3 cells at 150 uM incubated under irradiation at 405 nm by confocal laser scan fluorescence microscopy. The series is classed as ADME, cell-based. Particulars: pc-3, 150 µM.
A short description of series [5]: Photodynamic cytotoxicity in human PC-3 cells assessed as reduction in cell viability under 405 nm irradiation exposure measured after 2 hrs by MTT assay. The series is classed as toxicity, cell-based.
The test system of series [6] is PC-3. Put plainly: Dark toxicity in human PC-3 cells assessed as reduction in cell viability at 150 uM incubated under dark for 2 hrs by MTT assay. The series is classed as cell-based. The settings on record: pc-3, 2 h.

The structures appear in SMILES notation.

As to `O=[N+]([O-])c1ccc(-c2ccc(S[C@@H]3O[C@H](CO)[C@H](O)[C@H](O)[C@H]3O)cc2)cc1`, the Drug uptake entry in series [1], in series [2] and in series [4] was “Active” throughout. The Activity entry in series [3] is listed as “Toxic”. Moreover, the IC50 at 2 h in series [5] was found to be 120 µM.
`O=[N+]([O-])c1ccc(-c2ccc(OCCCO[C@@H]3O[C@H](CO)[C@@H](O)[C@H](O)[C@H]3O)cc2)cc1`: in series [6], the Activity entry was “Toxic”.
On the same count and under the same terms, the value for `O=[N+]([O-])c1ccc(-c2ccc(OCCCS[C@@H]3O[C@H](CO)[C@@H](O)[C@H](O)[C@H]3O)cc2)cc1` was “Toxic”.
As for `O=[N+]([O-])c1ccc(-c2ccc(S[C@H]3O[C@H](CO)[C@@H](O)[C@H](O)[C@@H]3O)cc2)cc1`, the Activity result in series [3] was “Toxic”. In addition, in series [4], the Drug uptake result is “Active”. Moreover, the half-maximal inhibitory concentration (IC50) at 2 h in series [5] came to 150 µM.
Consider `O=[N+]([O-])c1ccc(-c2ccc(O[C@@H]3O[C@H](CO)[C@@H](O)[C@H](O)[C@H]3O)cc2)cc1`, for which the Activity result in series [6] is given as “Non-Toxic”.
Turning to `O=[N+]([O-])c1ccc(-c2ccc(S[C@@H]3O[C@H](CO)[C@@H](O)[C@H](O)[C@H]3O)cc2)cc1`, the Activity result in series [3] and in series [6] was “Non-Toxic” in each case. Further, in series [4], the Drug uptake result is “Active”. Further, the IC50 at 2 h in series [5] worked out at 250 µM.
`O=[N+]([O-])c1ccc(-c2ccc(SCCCO[C@@H]3O[C@H](CO)[C@@H](O)[C@H](O)[C@H]3O)cc2)cc1`: the Activity entry in series [6] is on record as “Toxic”.

Values taken from ChEMBL document CHEMBL5143653, “4'-Nitrobiphenyl thioglucoside as the Smallest, fluorescent photosensitizer with cancer targeting ligand” (Bioorg Med Chem, 2022).
